Measured values taken from USRE48267E1, “Variants of C-type natriuretic peptide” (priority 2009, dated 2020).
Like-named read-outs stand apart in the source and are kept apart here.

What was measured:
Recombinant human NEP = Recombinant human NEP (Homo sapiens, UniProt P08473); assay: in vitro NEP cleavage assay (disappearance of non-cleaved CNP variant)
Summary of the method: (§1)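 Recombinant human NEP (1 ug/mL final) incubated with 100 uM CNP variant in 0.1 M Tris, pH 7, at 37° C for various times, then quenched with EDTA (10 mM final) and heat. Samples reduced and analysed by HPLC and mass spectrometry. Half-life derived from loss of intact variant over time.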

[1] = biological target: neutral endopeptidase (NEP) (Homo sapiens, UniProt P08473); assay: as above; conditions: human, pH 7
Summary of the method: as §1

[2] = IgG assay (immunogenicity) in mice
Description: An IgG assay was performed to assess whether an IgG immune response was triggered by 5 week exposure of achondroplastic FGFR3^ach mice to CNP22, CNP37 or PEO24-GANRR-CNP22(K4R) (“CNP27-PEO24”) (SEQ ID NO: 36). IgG is the most predominant immunoglobulin in mouse and human serum and is produced as part of the secondary immune response to an antigen. The IgG response to administration of the CNP peptides was determined as follows. 96-well plates were coated with 100 ng/mL CNP22, CNP37 or PEO24-GANRR-CNP22(K4R) (SEQ ID NO: 36) in BupH PBS buffer (Pierce/Thermo, Cat. No. 28372, Rockford, Ill.). After overnight incubation, plates were blocked with Casein-PBS blocking buffer (Pierce/Thermo, Cat. No. 37528) for two hours at room temperature with shaking at 300 rpm. After washing with wash buffer (1×PBS with 0.05% Tween), diluted serum samples from a terminal bleed (diluted 1:25) were added to the plate. Positive and negative controls were also loaded onto the plate. Positive control was 1:25 diluted serum (pooled from 6 individual FVB mice) with anti-CNP22 antibody added (Bachem rabbit anti-CNP22 IgG, Cat. No. T-4222) at 1:1000 dilution. Negative control was the diluted pooled serum. After two hours of incubation, the plates were washed and secondary antibody diluted in blocking buffer was added to the wells. For the mouse serum samples, anti-mouse IgG Fcγ (peroxidase-conjugated affinipure goat anti-mouse IgG, Fcγ fragment, Cat. No. 115-035-071, Jackson Immunoresearch, West Grove, Pa.) was added at a 1:10,000 dilution. For the positive and negative controls, anti-rabbit IgG-HRP (Santa Cruz Biotechnology, Cat. No. SC-2004, Santa Cruz, Calif.) was added to blocking buffer. After two hours of incubation at room temperature with shaking at 300 rpm, plates were washed with wash buffer. 100 uL of TMB (One-step TMB, Pierce/Thermo, Cat. No. 34022) was added to all wells. Plates were incubated at room temperature for 15 minutes with shaking at 300 rpm. Colorimetric reactions were stopped by the addition of 100 uL of 2 N H2SO4. Plates were read at 450 nm (Spectramax, Molecular Devices, Sunnyvale, Calif.) and data was analyzed using SoftMax Pro software (Molecular Devices).
The immunogenic response of wild-type mice administered G-CNP37, PEO12-GANRR-CNP22(K4R) (SEQ ID NO: 36) or Pro-Gly-CNP37, as measured by an increase in serum IgG level, was also assessed by examining terminal bleed serum samples as described above.

wild-type FVB mice = conditions: mouse, in vivo
Description: Group 1 included vehicle-treated mice injected s.c. daily for 9 weeks followed by 1 week of no treatment. Group 2 included mice treated with Pro-Gly-CNP37 (20 nmol/kg) once daily for 1 week, followed by three doses per week for 8 weeks, followed by 1 week of no treatment. Group 3 contained mice treated with Pro-Gly-CNP37 (20 nmol/kg) once daily in alternate weeks (weeks 1, 3, 5, 7 and 9), with 1 week of no treatment following each week of treatment. Group 4 contained mice treated with Pro-Gly-CNP37 (5 nmol/kg) once daily for 9 weeks followed by 1 week of no treatment. Finally, Group 5 included mice treated with Pro-Gly-CNP37 (5 nmol/kg) once daily for 5 weeks without any week of no treatment. Terminal bleed serum was collected from the mice, and cleaved collagen type II, total alkaline phosphatase and total antibody levels were measured therefrom. Cleaved collagen type II levels were measured as described above. Total alkaline phosphatase levels, predominantly from the liver and bones, were measured with the assistance of a veterinary diagnostic laboratory testing facility (Antech). […] Among the advantages of the ECLA platform, any isotype of antibody (IgG, IgM, etc.) can be detected, and the ECLA assay is species-independent. […] At the end of the 1 hour incubation, the MSD plate was washed and 150 uL of 2× read buffer (MSD Cat. No. R92TC-2) was added to the plate. […]

wild type FVB mice = assay: dose responses of CNP variants in wild type FVB mice; conditions: mouse, in vivo
Description: Tail length and body weight were measured over the course of treatment. Animals were sacrificed at the end of the experiment and bone length assessed.

[3] = pharmacokinetics in rats (plasma CNP immunoreactivity by RIA); format: in vivo, rat
Description: Recombinant wild-type CNP22, CNP37 and PEO24-GANRR-CNP22 […]) (SEQ ID NO: 36) were evaluated. […] Standard and QC samples were prepared. […] Plasma CNP immunoreactivity was employed for pharmacokinetics (PK) analysis. PK analysis was performed using WINNONLIN® Professional (Pharsight Corporation).

[4] = normal human; cited from earlier work
NPR-B = NPR-B (Homo sapiens, UniProt P20594); conditions: read-out: affinity to NPR-B; cited from earlier work
NPR-C = NPR-C (Homo sapiens, UniProt P17342); conditions: read-out: affinity to NPR-C; cited from earlier work
wild type mice = conditions: mouse, in vivo

Sequence of Recombinant human NEP (P08473 whole entry): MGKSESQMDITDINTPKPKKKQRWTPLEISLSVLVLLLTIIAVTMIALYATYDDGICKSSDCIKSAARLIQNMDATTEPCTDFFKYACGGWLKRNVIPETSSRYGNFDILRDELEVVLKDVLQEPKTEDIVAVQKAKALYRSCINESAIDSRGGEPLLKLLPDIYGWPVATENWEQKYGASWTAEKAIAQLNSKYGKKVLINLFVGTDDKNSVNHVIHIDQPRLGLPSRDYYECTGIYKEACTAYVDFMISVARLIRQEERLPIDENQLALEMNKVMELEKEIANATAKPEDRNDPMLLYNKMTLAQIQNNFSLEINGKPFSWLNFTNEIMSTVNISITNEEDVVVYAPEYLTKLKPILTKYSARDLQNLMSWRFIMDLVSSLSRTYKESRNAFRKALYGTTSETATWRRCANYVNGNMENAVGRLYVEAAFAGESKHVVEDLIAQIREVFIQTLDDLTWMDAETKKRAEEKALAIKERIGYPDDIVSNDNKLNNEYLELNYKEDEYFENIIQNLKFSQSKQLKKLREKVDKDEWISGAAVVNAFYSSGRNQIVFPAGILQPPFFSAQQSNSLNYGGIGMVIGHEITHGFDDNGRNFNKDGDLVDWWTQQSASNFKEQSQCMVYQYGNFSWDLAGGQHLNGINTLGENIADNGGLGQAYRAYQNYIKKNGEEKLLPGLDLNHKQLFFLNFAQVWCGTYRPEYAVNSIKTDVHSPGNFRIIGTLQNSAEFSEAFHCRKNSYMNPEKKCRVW
Sequence of neutral endopeptidase (NEP) (P08473 whole entry): as above
Sequence of NPR-C (P17342 27-541, species assumed): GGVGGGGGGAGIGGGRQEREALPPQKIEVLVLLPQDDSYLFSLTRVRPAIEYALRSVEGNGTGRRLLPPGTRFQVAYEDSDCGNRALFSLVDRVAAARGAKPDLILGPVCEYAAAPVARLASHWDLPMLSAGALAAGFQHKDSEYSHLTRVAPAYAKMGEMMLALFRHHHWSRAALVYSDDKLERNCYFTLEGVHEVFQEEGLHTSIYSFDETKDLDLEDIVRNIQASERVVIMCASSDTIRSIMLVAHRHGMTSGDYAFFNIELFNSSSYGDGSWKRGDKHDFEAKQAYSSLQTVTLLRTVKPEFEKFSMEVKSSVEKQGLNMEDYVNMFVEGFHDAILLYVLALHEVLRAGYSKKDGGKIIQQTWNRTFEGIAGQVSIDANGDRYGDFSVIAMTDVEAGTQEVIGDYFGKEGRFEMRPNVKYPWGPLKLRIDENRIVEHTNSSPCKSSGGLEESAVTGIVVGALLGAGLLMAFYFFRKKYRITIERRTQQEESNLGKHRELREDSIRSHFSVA
Sequence of NPR-B (P20594 23-1047, species assumed): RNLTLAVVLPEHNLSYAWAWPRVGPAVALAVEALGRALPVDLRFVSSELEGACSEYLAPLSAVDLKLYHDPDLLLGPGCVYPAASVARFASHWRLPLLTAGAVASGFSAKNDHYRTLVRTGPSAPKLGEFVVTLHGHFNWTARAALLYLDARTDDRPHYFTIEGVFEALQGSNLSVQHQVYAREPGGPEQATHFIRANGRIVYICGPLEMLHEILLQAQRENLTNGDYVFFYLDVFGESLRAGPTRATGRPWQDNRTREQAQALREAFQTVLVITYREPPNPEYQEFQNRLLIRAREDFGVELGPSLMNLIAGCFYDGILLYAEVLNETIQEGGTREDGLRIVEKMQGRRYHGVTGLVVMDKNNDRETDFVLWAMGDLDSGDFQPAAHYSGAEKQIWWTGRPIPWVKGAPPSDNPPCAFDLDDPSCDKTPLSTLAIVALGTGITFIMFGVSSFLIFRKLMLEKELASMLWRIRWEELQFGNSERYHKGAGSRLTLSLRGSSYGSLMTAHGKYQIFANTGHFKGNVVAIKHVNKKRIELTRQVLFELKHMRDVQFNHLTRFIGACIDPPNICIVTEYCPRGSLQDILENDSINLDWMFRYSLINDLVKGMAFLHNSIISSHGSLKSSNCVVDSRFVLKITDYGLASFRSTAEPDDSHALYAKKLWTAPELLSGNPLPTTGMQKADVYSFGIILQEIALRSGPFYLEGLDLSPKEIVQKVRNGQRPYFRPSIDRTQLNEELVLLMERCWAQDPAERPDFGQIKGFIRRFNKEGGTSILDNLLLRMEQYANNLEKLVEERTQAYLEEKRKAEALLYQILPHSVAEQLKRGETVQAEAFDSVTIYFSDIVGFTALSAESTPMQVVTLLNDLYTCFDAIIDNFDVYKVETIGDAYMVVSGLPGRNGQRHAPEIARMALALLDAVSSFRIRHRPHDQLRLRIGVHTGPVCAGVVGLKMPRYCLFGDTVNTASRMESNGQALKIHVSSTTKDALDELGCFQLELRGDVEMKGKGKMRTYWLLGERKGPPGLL

SMILES | resistance to NEP cleavage (in words) (Recombinant human NEP; in vitro NEP assay, assay period 160 minutes) | half-life at 100 uM [1] [h] | IgG immune response ([2]; wild-type mice, 5 weeks) | antibody response in the total antibody assay (wild-type FVB mice) | organ weight compared with vehicle treated animals (wild type FVB mice) | NEP Cleavage (t1/2, min) (Recombinant human NEP; 100 uM peptide, 1 ug/mL NEP, 0.1 M Tris pH 7, 37° C., adjusted t1/2, CNP22 normalized to 80 min) [min] | area under the curve, AUC (pmol·min/mL) ([3]; i.v. 20 nmol/kg) | bioavailability ([3]; s.c. 50 nmol/kg) [%] | IgG immune response ([2]; FGFR3^ach mice, 5 week exposure, 200 nmol/kg) | in vivo (plasma) half-life [4] [min] | Kd (NPR-B) [nM] | Kd (NPR-C) [nM] | resistance to NEP cleavage (in words) (Recombinant human NEP) | anti-CNP antibodies (IgG antibody response) (wild type mice)
CC[C@H](C)[C@@H]1NC(=O)[C@H](CCCNC(=N)N)NC(=O)[C@H](CC(=O)O)NC(=O)[C@H](CC(C)C)NC(=O)[C@H](CCCCN)NC(=O)[C@H](CC(C)C)NC(=O)CNC(=O)[C@H](Cc2ccccc2)NC(=O)[C@@H](NC(=O)CNC(=O)[C@H](CCCCN)NC(=O)[C@H](CO)NC(=O)[C@H](CC(C)C)NC(=O)CNC(=O)[C@H](CCCCN)NC(=O)[C@H](CCCCN)NC(=O)[C@H](CC(N)=O)NC(=O)[C@H](C)NC(=O)CNC(=O)[C@H](CCCCN)NC(=O)[C@H](Cc2ccc(O)cc2)NC(=O)[C@H](CCCCN)NC(=O)[C@H](CCCNC(=N)N)NC(=O)[C@H](C)NC(=O)[C@H](CC(N)=O)NC(=O)[C@@H]2CCCN2C(=O)[C@H](Cc2c[nH]cn2)NC(=O)[C@H](CCC(=O)O)NC(=O)[C@H](CCC(N)=O)NC(=O)CNC(=O)[C@@H]2CCCN2)CSSC[C@@H](C(=O)O)NC(=O)CNC(=O)[C@H](CC(C)C)NC(=O)CNC(=O)[C@H](CO)NC(=O)[C@H](CCSC)NC(=O)[C@H](CO)NC(=O)CNC1=O [Pro-Gly-CNP37] | most resistant to NEP degradation | > 2.67 | None of the wild-type mice | did not show a positive antibody response | no significant changes | – | – | – | – | – | – | – | – | –
CC[C@H](C)[C@@H]1NC(=O)[C@H](CCCNC(=N)N)NC(=O)[C@H](CC(=O)O)NC(=O)[C@H](CC(C)C)NC(=O)[C@H](CCCCN)NC(=O)[C@H](CC(C)C)NC(=O)CNC(=O)[C@H](Cc2ccccc2)NC(=O)[C@@H](NC(=O)CNC(=O)[C@H](CCCCN)NC(=O)[C@H](CO)NC(=O)[C@H](CC(C)C)NC(=O)CN)CSSC[C@@H](C(=O)O)NC(=O)CNC(=O)[C@H](CC(C)C)NC(=O)CNC(=O)[C@H](CO)NC(=O)[C@H](CCSC)NC(=O)[C@H](CO)NC(=O)CNC1=O [CNP22, reference compound] | – | – | – | – | – | 80 | 320 (±54) pmol·min/mL | 19 | no positive IgG immune response in any of the mice | 2.6 | 0.007 to 0.03 | 0.011 to 0.14 | – | –
CC[C@H](C)[C@@H]1NC(=O)[C@H](CCCNC(=N)N)NC(=O)[C@H](CC(=O)O)NC(=O)[C@H](CC(C)C)NC(=O)[C@H](CCCCN)NC(=O)[C@H](CC(C)C)NC(=O)CNC(=O)[C@H](Cc2ccccc2)NC(=O)[C@@H](NC(=O)CNC(=O)[C@H](CCCCN)NC(=O)[C@H](CO)NC(=O)[C@H](CC(C)C)NC(=O)CNC(=O)[C@H](CCCCN)NC(=O)[C@H](CCCCN)NC(=O)[C@H](CC(N)=O)NC(=O)[C@H](C)NC(=O)CNC(=O)[C@H](CCCCN)NC(=O)[C@H](Cc2ccccc2)NC(=O)[C@H](CCCNC(=N)N)NC(=O)[C@H](Cc2c[nH]cn2)NC(=O)[C@H](C)NC(=O)[C@@H](NC(=O)[C@H](CCC(=O)O)NC(=O)[C@H](CO)NC(=O)[C@H](CCCCN)NC(=O)[C@H](Cc2c[nH]cn2)NC(=O)CN)C(C)C)CSSC[C@@H](C(=O)O)NC(=O)CNC(=O)[C@H](CC(C)C)NC(=O)CNC(=O)[C@H](CO)NC(=O)[C@H](CCSC)NC(=O)[C@H](CO)NC(=O)CNC1=O [HSA-CNP27] | – | > 2.67 | – | – | – | – | – | – | – | – | – | – | most resistant to NEP degradation | elicited and IgG antibody response
